Assay results taken from US20230270867A1, “CONJUGATE IN WHICH FL118 DRUG IS LINKED TO ACID-SENSITIVE LINKER, AND IMMUNOCONJUGATE USING SAME” (PINOTBIO, INC., priority 2020, published 2023).

Experiments:
[1] = tested on: various cancer cell lines; assay: Cytotoxicity of FL118 in various cancer cell lines; assay type: cell-based; conditions: 140 cell lines originating from various cancers; against most cancer cells
MDA-MB-468 cells = assay: In vivo drug efficacy, MDA-MB-468 xenograft model (sacituzumab / Example 9); set-up: species or system mice; conditions: MDA-MB-468 model, Group 2, dose not given

Molecule | IC50 [1] [nM] | Tumor volume (MDA-MB-468 cells; Day 0) [mm^3] | TGI (MDA-MB-468 cells; Day 21) [%] | Tumor volume (MDA-MB-468 cells; Day 21) [mm^3]
CCC1(O)C(=O)OCc2c1cc1n(c2=O)Cc2cc3cc4c(cc3nc2-1)OCO4 (stereo in doubt) [FL118, (4S)-4-ethyl-4-hydroxy-8,9-methylenedioxy-1H-pyrano[3′,4′:6,7]indolizino[1,2-b]quinoline-3,14(4H,12H)-dione] | < 100 | – | – | –
sacituzumab: Trop-2 target antibody; control | – | 200.20 ± 30.90 | 43.6 | 433.08±126.82
